Data published in US10882859B2, “Kinase inhibitors” (Topivert Pharma Limited, priority 2015, dated 2021).
Like-named read-outs stand apart in the source and are kept apart here.

Key:
[1] = test system: CD3/IL2 stimulated PBMC cells; test: IFNγ release from CD3/IL2 stimulated PBMC cells; format: cell-based; conditions: Homo sapiens, CD3/IL2 stimulation, 48 h, ELISA
Procedure: PBMCs from healthy subjects are separated from whole blood using a density gradient (Lymphoprep, Axis-Shield Healthcare). Cells are added to a 96 well plate, and compound at the desired concentration added 2 hours prior to stimulation with a mixture of monoclonal antibody to CD3 (1 μg/ml, eBioscience) and human recombinant IL2 (10 ng/ml, Peprotech). After 48 hours incubation under normal tissue culture conditions, supernatants are collected and IFNγ release determined by Sandwich ELISA (Duo-set, R&D System). The IC50 is determined from the dose response curve.

Jurkat cells = test: Cell cytotoxicity assay (propidium iodide, flow cytometry); format: cell-based, human; conditions: 24 h
Procedure: 1×10^5 Jurkat cells (immortalised human T lymphocytes) are added to the appropriate number of wells of a 96 well plate in 100 μL of media (RPMI supplemented with 10% foetal bovine serum). 1 μL of DMSO control (final concentration 1.0% v/v) or test compound (final concentration 20, 5 or 1 μg/mL) is added to the wells and incubated at 37° C., 5% CO2. After 24 hours, the plate is centrifuged at 1200 rpm for 3 minutes and the supernatant discarded. Cells are then resuspended in 150 μL (final concentration 7.5 μg/mL) of propidium iodide (PI) in PBS and incubated at 37° C., 5% CO2 for 15 minutes. After 15 minutes, cells are analysed by flow cytometry (BD accuri) using the FL3 window. The % viability is calculated as the % of cells that are PI negative in the test wells normalised to the DMSO control.

[2] = Systemic pharmacokinetics and total colon tissue distribution after single oral administration; format: in vivo, male C57BL/6 mice; conditions: mice, oral 10 mg/kg; for concentration at 0.5 h / concentration at 1 h / concentration at 2 h / concentration at 4 h / concentration at 6 h / concentration at 8 h / concentration at 12 h / concentration at 24 h: male, C57BL/6, mouse
Procedure: Studies were conducted by Sai Life Sciences (Hinjewadi, Pune, India) to investigate the systemic pharmacokinetics and total colon tissue distribution of compounds of the invention following a single oral administration in male C57BL/6 mice.
A group of twenty four male mice were administered with a solution of test compound formulated at a dose of 10 mg/10 mL/kg in aqueous hydroxypropyl-β-cyclodextrin (20% w/v in water). Blood samples ([…]) were collected from retro-orbital plexus of each mouse under light isoflurane anaesthesia such that the samples were obtained at 0.5, 1, 2, 4, 6, 8, 12 and 24 hr. The blood samples were collected from a set of three mice at each time point in a labeled micro centrifuge tube containing K2EDTA as anticoagulant. Plasma samples were separated by centrifugation at 4000 rpm for 10 min and stored below −70° C. until bioanalysis. After collection of blood sample, animals were humanely euthanized by carbon dioxide asphyxiation to collect total colon tissues. The colons were flushed with cold PBS (pH7.4) to remove contents. The total colon tissues were homogenized with cold PBS (pH7.4) of twice the weight of colon tissue and stored below −70° C. Total volume was three times the total colon tissue weights. All samples were processed for analysis by protein precipitation using acetonitrile and analyzed with a fit-for-purpose LC-MS/MS method. Pharmacokinetic parameters were calculated using the non-compartmental analysis tool of Phoenix WinNonlin® (Version 6.3).

[3] = total colon tissue, total colon, read-out: Mean total colon level
[4] = plasma, read-out: Mean plasma concentration

Row | Structure (SMILES) | IC50 [1] [nM] | % viability at 1 μg/mL (Jurkat cells) [%] | further results
1 | CCc1cc(O)c(F)cc1-c1ccc2c(-c3nc4c([nH]3)CCN(C(=O)N3CCN(CC)C(=O)C3=O)C4)n[nH]c2c1 [Example 2(c), 1-ethyl-4-(2-(6-(2-ethyl-5-fluoro-4-hydroxyphenyl)-1H-indazol-3-yl)-4,5,6,7-tetrahydro-1H-imidazo[4,5-c]pyridine-5-carbonyl)piperazine-2,3-dione] | 129 | 99 | –
2 | CCc1cc(O)c(F)cc1-c1ccc2c(-c3nc4c([nH]3)CCN(C(=O)N(C)c3ccccc3)C4)n[nH]c2c1 [Example 2(e), 2-(6-(2-ethyl-5-fluoro-4-hydroxyphenyl)-1H-indazol-3-yl)-N-methyl-N-phenyl-1,4,6,7-tetrahydro-5H-imidazo[4,5-c]pyridine-5-carboxamide] | 10.9 | 92 | –
3 | CCc1cc(O)c(F)cc1-c1ccc2c(-c3nc4c([nH]3)CCN(C(=O)NCC3CCOCC3)C4)n[nH]c2c1 [Example 3, 2-(6-(2-Ethyl-5-fluoro-4-hydroxyphenvl)-1H-indazol-3-yl)-N-((tetrahydro-2H-byran-4-yl)methyl)-6,7-dihydro-1H-imidazo[4,5-c]pyridine-5(4)-carboxamide] | 19.5 | 91 | –
4 | CCc1cc(O)c(F)cc1-c1ccc2c(-c3nc4c([nH]3)CCN(C(=O)NCCOCCOC)C4)n[nH]c2c1 [Example 4(a), 2-(6-(2-ethyl-5-fluoro-4-hydroxyphenyl)-1H-indazol-3-yl)-N-(2-(2-methoxyethoxy)ethyl)-6,7-dihydro-1H-imidazo[4,5-c]pyridine-5(4H)-carboxamide] | 14.6 | 60 | –
5 | CCc1cc(O)c(F)cc1-c1ccc2c(-c3nc4c([nH]3)CCN(C(=O)Nc3cn(C)c(=O)n(C)c3=O)C4)n[nH]c2c1 [Example 4(d), N-(1,3-dimethyl-2,4-dioxo-1,2,3,4-tetrahydropyrimidin-5-yl)-2-(6-(2-ethyl-5-fluoro-4-hydroxyphenyl)-1H-indazol-3-yl)-6,7-dihydro-1H-imidazo[4,5-c]pyridine-5(4H)-carboxamide] | 19.2 | 60 | –
6 | CCc1cc(O)c(F)cc1-c1ccc2c(-c3nc4c([nH]3)CCN(S(=O)(=O)N3CCN(S(C)(=O)=O)CC3)C4)n[nH]c2c1 [Example 5] | 17.8 | 87 | –
7 | CCc1cc(O)c(F)cc1-c1ccc2c(-c3nc4c([nH]3)CCN(S(=O)(=O)N(CCC#N)CCOC)C4)n[nH]c2c1 [Example 6(a), N-(2-cyanoethyl)-2-(6-(2-ethyl-5-fluoro-4-hydroxyphenyl)-1H-indazol-3-yl)-N-(2-methoxyethyl)-6,7-dihydro-1H-imidazo[4,5-c]pyridine-5(4H)-sulfonamide] | 9.5 | 79 | –
8 | CCc1cc(O)c(F)cc1-c1ccc2c(-c3nc4c([nH]3)CCN(S(=O)(=O)N(C)C3CCOCC3)C4)n[nH]c2c1 [Example 6(c), 2-(6-(2-ethyl-5-fluoro-4-hydroxyphenyl)-1H-indazol-3-yl)-N-methyl-N-(tetrahydro-2H-pyran-4-yl)-6,7-dihydro-1H-imidazo[4,5-c]pyridine-5(4H)-sulfonamide] | 9.3 | 76 | –
9 | CCc1cc(O)c(F)cc1-c1ccc2c(-c3nc4c([nH]3)CCN(S(=O)(=O)N3CCCC3)C4)n[nH]c2c1 [Example 6(d), 5-ethyl-2-fluoro-4-(3-(5-(pyrrolidin-1-ylsulfonyl)-4,5,6,7-tetrahydro-1H-imidazo[4,5-c]pyridin-2-yl)-1H-indazol-6-yl)phenol] | 8.3 | 74 | –
10 | CCc1cc(O)c(F)cc1-c1ccc2c(-c3nc4c([nH]3)CCN(S(=O)(=O)N3CCOCC3)C4)n[nH]c2c1 [Example 6(e), 5-ethyl-2-fluoro-4-(3-(5-(morpholinosulfonyl)-4,5,6,7-tetrahydro-1H-imidazo[4,5-c]pyridin-2-yl)-1H-indazol-6-yl)phenol] | 4.7 | 64 | –
11 | CCc1cc(O)c(F)cc1-c1ccc2c(-c3nc4c([nH]3)CCN(S(=O)(=O)N3CCN(C)CC3)C4)n[nH]c2c1 [Example 6(f), 5-ethyl-2-fluoro-4-(3-(5-((4-methylpiperazin-1-yl)sulfonyl)-4,5,6,7-tetrahydro-1H-imidazo[4,5-c]pyridin-2-yl)-1H-indazol-6-yl)phenol] | 9 | 29 | –
12 | CCc1cc(O)c(F)cc1-c1ccc2c(-c3nc4c([nH]3)CCN(S(=O)(=O)N3CCS(=O)(=O)CC3)C4)n[nH]c2c1 [Example 6(g), 4-((2-(6-(2-ethyl-5-fluoro-4-hydroxyphenyl)-1H-indazol-3-yl)-6,7-dihydro-1H-imidazo[4,5-c]pyridin-5(4H)-yl)sulfonyl)thiomorpholine 1,1-dioxide] | 7.2 | 88 | –
13 | CCc1cc(O)c(F)cc1-c1ccc2c(-c3nc4c([nH]3)CCN(S(=O)(=O)N3CCN(C=O)CC3)C4)n[nH]c2c1 [Example 6(h), 4-((2-(6-(2-ethyl-5-fluoro-4-hydroxyphenyl)-1H-indazol-3-yl)-6,7-dihydro-1H-imidazo[4,5-c]pyridin-5(4H)-yl)sulfonyl)piperazine-1-carbaldehyde] | 37.4 | 93 | –
14 | CCc1cc(O)c(F)cc1-c1ccc2c(-c3nc4c([nH]3)CCN(S(=O)(=O)N3CCC(OC)CC3)C4)n[nH]c2c1 [Example 6(i), 5-Ethyl-2-fluoro-4-(3-(5-((4-methoxypiperidin-1-yl)sulfonyl)-4,5,6,7-tetrahydro-1H-imidazo[4,5-c]pyridin-2-yl)-1H-indazol-6-yl)phenol] | 14 | 86 | –
15 | CCc1cc(O)c(F)cc1-c1ccc2c(-c3nc4c([nH]3)CCN(C(=O)c3cnc(N5CCCCC5)cn3)C4)n[nH]c2c1 [Reference Compound, reference compound] | – | 49 | concentration at 0.5 h [2, 3]: 344 ng/g; concentration at 1 h [2, 3]: 102 ng/g; concentration at 2 h [2, 3]: 2370 ng/g; concentration at 4 h [2, 3]: 2970 ng/g; concentration at 6 h [2, 3]: 201 ng/g; concentration at 8 h [2, 3]: 2560 ng/g; concentration at 12 h [2, 3]: 3230 ng/g; concentration at 24 h [2, 3]: 16.6 ng/g; concentration at 0.5 h [2, 4]: 5.2 ng/mL; concentration at 1 h [2, 4]: 12.8 ng/mL; concentration at 2 h [2, 4]: 2.2 ng/mL; concentration at 4 h [2, 4]: 14.4 ng/mL; concentration at 6 h [2, 4]: 114 ng/mL; concentration at 8 h [2, 4]: 95 ng/mL; concentration at 12 h [2, 4]: 0 ng/mL; concentration at 24 h [2, 4]: 0 ng/mL; Colonic exposure AUC0-24 h ([2]; total colon): 43,739 h·ng/g
